Target: T1, 5-HT2C receptor (Homo sapiens, UniProt P28335)
T1 sequence (P28335 33-458): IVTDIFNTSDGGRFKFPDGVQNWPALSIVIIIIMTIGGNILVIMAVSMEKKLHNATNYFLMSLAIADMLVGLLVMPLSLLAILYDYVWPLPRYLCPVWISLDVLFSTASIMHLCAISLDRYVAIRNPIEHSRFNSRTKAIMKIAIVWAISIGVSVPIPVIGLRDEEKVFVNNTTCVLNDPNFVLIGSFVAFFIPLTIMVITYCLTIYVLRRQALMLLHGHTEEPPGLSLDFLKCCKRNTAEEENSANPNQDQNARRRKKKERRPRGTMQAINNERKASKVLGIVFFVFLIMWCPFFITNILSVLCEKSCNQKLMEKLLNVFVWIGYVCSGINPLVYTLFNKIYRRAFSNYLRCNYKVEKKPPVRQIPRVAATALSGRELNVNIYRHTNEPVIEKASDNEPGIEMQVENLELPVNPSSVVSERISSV
Assay: […]DOI radioligand competition binding on HEK-h5HT2C cell homogenate

CC(C)N(CCc1c[nH]c2ccccc12)C(C)C [DiPT]
Ki: 290 ± 110 nM
